Activity calls are given as the source filed them. The rule behind the calls is not given here. Peptide text beside a SMILES is read from it. * marks the point of attachment. βGlc = OC[C@H]1O[C@@H](*)[C@H](O)[C@@H](O)[C@@H]1O
Experiments:
Assay type in all cases: functional
[1] = biological target: T1, Substance-K receptor (Mesocricetus auratus) (UniProt P51144); experiment: Compound was tested for its antagonistic activity against tachykinin NK2 receptor in hamster trachea (HT).
T1 sequence (whole entry): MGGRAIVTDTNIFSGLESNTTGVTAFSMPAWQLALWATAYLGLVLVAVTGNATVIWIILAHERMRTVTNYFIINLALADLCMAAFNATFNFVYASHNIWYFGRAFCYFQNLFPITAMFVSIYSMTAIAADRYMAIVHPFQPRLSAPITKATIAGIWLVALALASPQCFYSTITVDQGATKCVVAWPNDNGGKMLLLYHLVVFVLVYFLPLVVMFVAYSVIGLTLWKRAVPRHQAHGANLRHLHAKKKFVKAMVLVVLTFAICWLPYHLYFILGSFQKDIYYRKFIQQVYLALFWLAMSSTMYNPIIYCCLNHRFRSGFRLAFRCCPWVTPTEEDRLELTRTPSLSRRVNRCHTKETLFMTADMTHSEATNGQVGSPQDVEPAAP

[2] = biological target: T2, Substance-K receptor (Oryctolagus cuniculus) (UniProt P79218); experiment: Compound was tested for its antagonistic activity against tachykinin NK2 receptor in isolated rabbit pulmonary artery (RPA).
T2 sequence (whole entry): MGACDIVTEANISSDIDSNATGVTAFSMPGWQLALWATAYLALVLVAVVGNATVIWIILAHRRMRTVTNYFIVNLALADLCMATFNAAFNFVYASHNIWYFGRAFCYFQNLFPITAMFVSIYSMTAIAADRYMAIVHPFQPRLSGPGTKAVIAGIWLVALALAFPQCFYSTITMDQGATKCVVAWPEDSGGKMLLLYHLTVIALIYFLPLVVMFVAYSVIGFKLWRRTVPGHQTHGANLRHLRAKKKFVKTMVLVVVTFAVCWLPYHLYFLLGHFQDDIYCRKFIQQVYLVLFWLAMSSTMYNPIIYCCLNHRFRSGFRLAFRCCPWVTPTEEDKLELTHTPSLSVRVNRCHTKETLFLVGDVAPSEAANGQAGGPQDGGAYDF

[3] = biological target: T1, Substance-K receptor (Mesocricetus auratus); experiment: Compound was tested for its antagonistic activity against tachykinin NK2 receptor in hamster trachea (HT); inactive up to 10 uM

Which pKB [1] does the source give for `CC(C)[C@H](NC(=O)[C@H](Cc1c[nH]c2ccccc12)NC(=O)[C@H](Cc1ccc(O)cc1)NC(=O)[C@@H](N)CC(=O)O)C(=O)N[C@H](Cc1c[nH]c2ccccc12)C(=O)N[C@@H](Cc1c[nH]c2ccccc12)C(=O)N[C@@H](CCCCN)C(N)=O` here?
The pKB was 5.6.

What about the pKB [2] of the same compound?
Its pKB is 8.1.

`CC(C)[C@H](NC(=O)[C@H](Cc1c[nH]c2ccccc12)NC(=O)[C@H](Cc1ccc(O)cc1)NC(=O)[C@H](CC(=O)O)NC(=O)[C@@H](N)Cc1ccc(O[C@@H]2O[C@H](CO)[C@@H](O)[C@H](O)[C@H]2O)cc1)C(=O)N[C@@H](Cc1c[nH]c2ccccc12)C(=O)N[C@H](Cc1c[nH]c2ccccc12)C(=O)N[C@@H](CCCCN)C(N)=O` was tested. Which pKB [1] did it give?
The pKB was less than 5.

What about the pKB [2] of the same compound?
Its pKB is 7.2.

With `CC(C)[C@H](NC(=O)[C@H](Cc1c[nH]c2ccccc12)NC(=O)[C@H](Cc1ccc(O[C@@H]2O[C@H](CO)[C@@H](O)[C@H](O)[C@H]2O)cc1)NC(=O)[C@@H](N)CC(=O)O)C(=O)N[C@@H](Cc1c[nH]c2ccccc12)C(=O)N[C@H](Cc1c[nH]c2ccccc12)C(=O)N[C@@H](CCCCN)C(N)=O` as the compound, how does the pKB [3] read?
Its pKB is “inactive”.

What about the pKB [2] of the same compound?
The pKB was 6.2.

What does the source list for `CC(C)[C@H](NC(=O)C(Cc1c[nH]c2ccccc12)NC(=O)[C@H](Cc1ccc(O)cc1)NC(=O)[C@H](CC(=O)O)NC(=O)[C@@H](N)CO[C@@H]1O[C@H](CO)[C@@H](O)[C@H](O)[C@H]1O)C(=O)NC(Cc1c[nH]c2ccccc12)C(N)=O` (stereo in doubt)?
pKB [1]: < 6; pKB [2]: < 6

Which pKB [3] does the source give for `CC(C)[C@H](NC(=O)[C@H](Cc1c[nH]c2ccccc12)NC(=O)[C@H](Cc1ccc(O[C@@H]2O[C@H](CO)[C@@H](O)[C@H](O)[C@H]2O)cc1)NC(=O)[C@@H](N)CC(=O)O)C(=O)N[C@@H](Cc1c[nH]c2ccccc12)C(N)=O` (H-DY(βGlc)WVW-NH2) here?
Its pKB is “inactive”.

And the pKB [2]?
The pKB was less than 5.

`CC(C)[C@H](NC(=O)[C@H](Cc1c[nH]c2ccccc12)NC(=O)[C@H](Cc1ccc(O)cc1)NC(=O)[C@H](CC(=O)O)NC(=O)[C@@H](N)CO[C@@H]1O[C@H](CO)[C@@H](O)[C@H](O)[C@H]1O)C(=O)N[C@@H](Cc1c[nH]c2ccccc12)C(=O)N[C@H](Cc1c[nH]c2ccccc12)C(=O)N[C@@H](CCCCN)C(N)=O` was tested. Which pKB [1] did it give?
Its pKB is less than 5.

And the pKB [2]?
The pKB was 7.3.

What does the source list for `CC(C)[C@H](NC(=O)[C@@H](Cc1c[nH]c2ccccc12)NC(=O)[C@H](Cc1ccc(O)cc1)NC(=O)[C@@H](N)CC(=O)O)C(=O)N[C@H](Cc1c[nH]c2ccccc12)C(N)=O`?
pKB [1]: 5.4; pKB [2]: 6.3

Reference: ChEMBL document CHEMBL1150464, “Glycosyl derivatives of NK2 tachykinin receptor antagonists” (Bioorg Med Chem Lett, 1996)
